Data as given in US9603869B2, “Lithium co-crystals and an additional neuropsychiatric agent for treatment of neuropsychiatric disorders” (UNIVERSITY OF SOUTH FLORIDA, priority 2015, dated 2017).
Read-outs that look alike come from different tables or passages of the source.

Columns and labels:
[1] = test system: Murine neuronal stem cells; test: Murine neuronal stem cell differentiation (MAP2, total tau, phospho-synapsin I); type: cell-based, mouse; conditions: 10 mM, 4 days; for difference in MAP2, phospho-synapsin I and total tau immunofluorescence and WB between Li2CO3, LiCl and L-proline: murine neuronal stem cells, P>0.05
Protocol: FIGS. 6A-6F. […] These cells were then permeabilized, washed and stained with mouse anti-MAP2 monoclonal antibody (EMD Millipore) or mouse anti-total tau (tau46) antibody overnight at 4° C. […] Confocal images were taken by Olympus fluoview FV1000 laser scanning confocal microscope. […] DAPI staining (Life Technologies) was used to detect nuclear DNA. Confocal images were taken by Olympus Fluoview™ FV1000 laser scanning confocal microscope (FIG. 17A). […] The band density ratios of MAP2 to β-actin, total tau to β-actin, and phospho-synapsin I to β-actin are presented as mean±S.D (FIGS. 17B-1, 17B-2, and 17B-3, respectively).

COX2 [2] = test: COX2 expression Western blot in human renal proximal tubule (HRPT) cells; conditions: 0 to 30 mM, 12 hours
Text: These cells were then lysed with cell lysis buffer and analyzed by WB for COX2, total GSK3β and phospho GSK3β (Ser9 and Thr390) expression using anti-COX2 antibody (FIG. 7A, ABCAM®) and anti-phospho- and total GSK3β antibodies (FIG. 7B).
These cells were then lysed with cell lysis buffer and analyzed by WB for COX2, total GSK3β and phospho GSK3β (Ser^9) expressions using anti-COX2 antibody (FIG. 20A, Abcam®) and anti-phospho- and total GSK3β antibodies (FIG. 20B).

[3] = test system: Mouse primary microglial cells; test: Autophagy (LC3B staining) in mouse primary microglial cells; type: cell-based; conditions: 10 mM, 18 hours; for autophagy (LC3B fluorescence intensity of autophagosomes and cytosol): vs PBS control; for difference in fluorescence intensity of autophagosomes and cytosol versus Li2CO3: P>0.05
Text: FIG. 8. […] The fluorescence intensity of the autophagosomes and the cytosol were quantified using SLIDEBOOK™ digital microscopy software.
The fluorescence intensity of the autophagosomes and the cytosol were quantified using Slidebook™ digital microscopy software (mean±SD) (FIG. 19).

GSK3β [4] = test: GSK3β phosphorylation Western blot in human renal proximal tubule (HRPT) cells; type: cell-based; conditions: 0 to 30 mM, 12 hours
[5] = test system: Human neural stem cells (H9-Derived); test: Human neuronal stem cell differentiation (MAP2, GFAP); type: cell-based; conditions: 10 mM, 14 days; for difference in MAP2 and GFAP immunofluorescence and WB between Li2CO3, LiCl and L-proline: human neural stem cells, P>0.05
Text: Human neural stem cells (H9-Derived) were obtained from Life technologies and cultured with StemPro® NSC SFM media. […] DAPI was used to detect nuclear DNA. Confocal images were taken by Olympus Fluoview™ FV1000 laser scanning confocal microscope (FIG. 18A).

N2a cells = test: Neuronal cell differentiation of N2a cells (β-tubulin III, phospho-synapsin I); type: cell-based, mouse; conditions: 10 mM, 24 hours; for difference in β-tubulin III and phospho-synapsin I immunofluorescence and WB between Li2CO3, LiCl and L-proline: P>0.05
Protocol: FIGS. 5A-5C. […] These cells were then permeabilized with 0.05% Triton X-100 for 5 minutes, washed and stained with mouse anti-β-tubulin III monoclonal antibody ([…]™) and rabbit anti-phospho-Synapsin I (Ser^62, Ser^67) polyclonal antibody (EMD Millipore) overnight at 4° C. […] Confocal images were taken by Olympus fluoview FV1000 laser scanning confocal microscope (Tokyo, Japan).
These cells were then permeabilized with 0.05% Triton X-100 for 5 min, washed, and stained with mouse anti-β-tubulin III monoclonal antibody ([…]™) and rabbit anti-phospho-synapsin I (Ser^62, Ser^67) polyclonal antibody (EMD Millipore) overnight at 4° C. […] Confocal images were taken by Olympus Fluoview™ FV1000 laser scanning confocal microscope (Tokyo, Japan) (FIG. 5A).

cytokines and sCD40L = conditions: Tg2576 mice, diet 8 weeks, 2.25 mmol/kg/day
Text: In addition, spleens from these mice were isolated and splenocytes cultured as described previously (30).

GSK3β [6] = conditions: Tg2576 mice, diet 8 weeks, 2.25 mmol/kg/day; LISPRO vs Li2CO3-treated, Li2CO3 vs control NIH31 diet
Text: (§1) Inhibitory phosphorylation status of GSK3β was detected by anti-phospho-GSK3β (Ser^9) [pGSK3β (Ser^9)] antibody.

tau = conditions: Tg2576 mice, diet 8 weeks, 2.25 mmol/kg/day; LISPRO vs Li2CO3-treated, Li2CO3 vs control NIH31 diet
Text: as §1

[7] = test system: β-amyloid pathology in Tg2576 mice; conditions: diet 8 weeks, lithium 2.25 mmol/kg/day, Li2CO3 vs control NIH31 diet
Protocol: All mice received normal drinking water ad libitum. […] Mouse brain tissue sections and homogenates were prepared from each mouse after treatment. Half-brain coronal sections were analyzed by Aβ antibody 4G8 staining (FIG. 14A). Percentage of 4G8 positive plaques (mean±SD) was quantified by image analysis (28, 29) (FIG. 14B). Total soluble and insoluble Aβ40,42 peptides from homogenates were analyzed by ELISA, and represented as picograms of Aβ peptides per mg of total protein (FIG. 14C).

COX2 [8] = conditions: Tg2576 mice, diet 8 weeks, lithium 2.25 mmol/kg/day
[9] = C57BL/6J mice, diet 1 or 2 weeks, lithium 1.125 or 2.25 mmol/kg/day
Protocol: All mice received normal drinking water ad libitum. Statistical analysis was carried out following ANOVA analysis.

[10] = rats, 4 mEq/kg lithium, oral gavage
COX2 [11] = conditions: C57BL/6J male mice, diet 1 or 2 weeks, lithium 1.125 and 2.25 mmol/kg/day
Text: All mice received normal drinking water ad libitum. Kidneys were collected after treatment and analyzed by immunohistochemistry for COX2 expression in the renal medulla (FIG. 21A). In addition, the kidney microsomal proteins were extracted to assess COX2 expression by WB (FIGS. 21B-1, 21B-2). Data are expressed as mean±SD in duplicates from six mice in each group (FIG. 21B-3).

[12] = test system: primary microglia isolated from 3XTg-AD mice; conditions: microglia from older 3XTg-AD mice treated at minimum dose, vs Li2CO3 or control diet
Text: The inventors will fully examine microglial pro-inflammatory MAPK, NF-kB and CD40 signaling pathways, cytokine secretion, Aβ phagocytosis capacity, markers of M1 or M2 phenotype and microglial autophagy (IMPase) ex vivo via immunohistochemistry, WB, RT-PCR and Flow analysis in primary microglia isolated from these mice. These methods and assays have been well established as previously published (56, 73, 75). The culturing of primary microglial cells from young and aged mice has been routinely conducted (28, 29, 73).

GSK3β [13] = conditions: 12 hours
Protocol: FIGS. 2A and 2B. […] Cell lysates were prepared and subjected to WB analysis with specific anti-phospho-GSK3β (Ser9) and total GSK3β antibodies. […] WB results are representative of three independent experiments.
WB results are representative of three independent experiments.

Notch processing = conditions: N2a/APPwt/Notch-ΔE cells, 0, 2.5, 5 and 10 mM, 5 hours, compared to DFK-167
Text: (§2) FIGS. 1A and 1B. […] The cell lysates were routinely prepared from these cells for Western blot (WB) analysis.

Aβ40,42 peptides = conditions: N2a/APPwt cells, LISPRO 0, 2.5, 5 and 10 mM, 12 h
Text: as §2

3XTg-AD mice = conditions: chow 4 months
Text: In order to reduce potential lithium toxicity in the kidney, a saline bottle will be provided in addition to water in all cages. Behavior of animals in these groups and in non-transgenic untreated wild-type mice will be evaluated after treatment, with a established behavioral battery which measures multiple cognitive domains, including open field, novel object recognition, radial arm water maze, and contextual and cued fear conditioning (42-46).
The behavioral battery will include the Balance Beam Task, to evaluate vestibular and general motor function and account for any problems that may occur with the rest of the tests due to motor (and not behavioral/cognitive) impairment.

primary microglial cells = test system: primary microglial cells
Protocol: FIGS. 4A-4C. […] Data are represented as mean percentage of CD40 expressing cells (±SD). […] Microglial cell culture supernatants were collected and subjected to cytokine ELISA as indicated. Data were represented as mean pg of TNFα or IL-12p70 per mg of total cellular protein (±SD). […] Cellular supernatants and lysates were analyzed for extracellular (top panel) and cell-associated (bottom panel) FITC-Aβ42 using a fluorometer. Data are represented as the relative fold of mean fluorescence change (mean±SD), calculated as the mean fluorescence for each sample at 37° C. divided by mean fluorescence at 4° C.
Data are represented as mean percentage of CD40-expressing cells (±SD) (FIG. 4A). […] Microglial cell culture supernatants were collected and subjected to cytokine ELISA as indicated. Data are represented as mean pg of TNFα or IL-12p70 per mg of total cellular protein (±SD) (FIG. 4B). […] Cellular supernatants and lysates were analyzed for extracellular (top panel) and cell-associated (bottom panel) FITC-Aβ42 using a fluorometer (FIG. 4C). Data are represented as the relative fold of mean fluorescence change (mean±SD), calculated as the mean fluorescence for each sample at 37° C. divided by mean fluorescence at 4° C.

Compound	difference in MAP2, phospho-synapsin I and total tau immunofluorescence and WB between Li2CO3, LiCl and L-proline [1]	autophagy (LC3B fluorescence intensity of autophagosomes and cytosol) [3]	GSK3β activity / GSK3β (Ser9) phosphorylation (WB) (GSK3β [4])	difference in MAP2 and GFAP immunofluorescence and WB between Li2CO3, LiCl and L-proline [5]	difference in β-tubulin III and phospho-synapsin I immunofluorescence and WB between Li2CO3, LiCl and L-proline (N2a cells)	difference in COX2 expression between Li2CO3 and LiCl (COX2 [2])	β-amyloid pathology (4G8 positive Aβ plaques in brain sections) [7]	difference in lithium levels in serum and brain homogenate between Li2CO3- and lithium salicylate-treated mice [9]	difference in GSK3β phosphorylation between Li2CO3 and LiCl (GSK3β [4])	difference in fluorescence intensity of autophagosomes and cytosol versus Li2CO3 [3]	also measured
O=C(O)[C@@H]1CCCN1 [L-proline]	no significance difference	failed to promote any notable autophagy	no change	no significance difference	no notable or significant difference	–	–	–	–	–	COX2 expression (WB) (COX2 [2]): no change
O=C([O-])[O-].[Li+].[Li+] [Li2CO3, lithium carbonate]	no significance difference	significant enhancement of autophagy	–	no significance difference	no notable or significant difference	no notable differences	no notable or significant difference	no significant difference	no notable differences	–	cytokine levels in plasma and splenocyte cultured media (cytokines and sCD40L; vs control NIH31 diet): no notable or significant difference; ratio of pGSK3β (Ser9) to total GSK3β in brain homogenates (GSK3β [6]): no notable and significant difference; ratio of p-tau (Thr231) to total tau in brain homogenates (tau): no notable and significant difference; kidney (renal) COX2 expression versus control mice (COX2 [8]): enhanced; brain lithium level profile [10]: spike in brain lithium levels at 24 hours; plasma lithium level at 48 hours [10]: nearly undetectable; plasma lithium pharmacokinetic profile [10]: sharp peak and rapid elimination
[Cl-].[Li+] [LiCl]	no significance difference	–	–	no significance difference	no notable or significant difference	no notable differences	–	–	no notable differences	no significance difference	–
O=C([O-])c1ccccc1O.[Li+] [lithium salicylate]	–	–	–	–	–	–	–	no significant difference	–	–	kidney microsomal COX2 expression levels versus control NIH31 diet (COX2 [11]): no significant difference
Lithium Salicylate Proline [LISPRO]	–	significant enhancement of autophagy	Markedly Reduces GSK3β Activity	–	–	–	Reduces β-Amyloid Pathology	–	–	no significance difference	murine neuronal stem cell differentiation (MAP2, total tau, phospho-synapsin I) [1]: Enhances Murine Neuronal Stem Cell Differentiation; microglial M2 phenotype ex vivo [12]: will strongly preserve an M2 phenotype; anti-inflammatory/Th2 responses (cytokine ELISA) (cytokines and sCD40L; oral): Promotes Anti-Inflammatory/Th2 Responses; sCD40L in the CNS (brain homogenate ELISA) (cytokines and sCD40L; oral): Decreases sCD40L; phosphorylated GSK3β (Ser9) level (WB) (GSK3β [13]; SH-SY5Y cells): notably elevated; phosphorylated GSK3β (Ser9) level (WB) (GSK3β [13]; primary neuronal cells): notably elevated; human neuronal stem cell differentiation (MAP2, GFAP) [5]: Enhances Human Neuronal Stem Cell Differentiation; Notch cleavage (WB, c-myc and cleaved Notch antibodies) (Notch processing): did not inhibit Notch cleavage; Aβ40, Aβ42 peptides secreted in cell culture media (Aβ generation) (Aβ40,42 peptides): reduces Aβ generation; effectiveness on abolishing AD-like cognitive impairment (3XTg-AD mice): more effective than equimolar doses of Li2CO3; long-term and short-term memory impairment (behavioral battery) (3XTg-AD mice; prophylactic and therapeutic groups): will reverse or abolish long-term and short-term memory impairment; microglial phagocytosis of Aβ (FITC-Aβ42, extracellular and cell-associated) (primary microglial cells; 10 mM pre-treatment 6 hours, 1 μM aged FITC-Aβ42 1 hour): Enhances Microglial Phagocytosis of Aβ; IFNγ-induced CD40 expression (FACS, percentage of CD40-expressing cells) (primary microglial cells; 8 hours co-treatment): significant dose-dependent decreases; pro-inflammatory microglial activation induced by IFNγ and CD40 signaling (FACS, TNFα and IL-12p70 ELISA) (primary microglial cells; IFNγ or/and CD40L 1 μg/mL, 8 hours): Inhibits Microglial Activation-Induced by IFNγ and CD40 Signaling; neuronal cell differentiation (β-tubulin III, phospho-synapsin I) (N2a cells): Markedly Promotes Neuronal Cell Differentiation
